The test system of data set [1] is senescence-accelerated model mice (SAMP8). Nature of the data set: Motor activities of senescence-accelerated model mice (SUPERMEX). The class given is in vivo, mouse. To be noted: for Motor activities (Count) / Motor activities, relative proportion to the control group (control = 100): feedstuff containing 0.4%, 11th month after start of test; for Motor activities (Count): average from 16 o'clock to 9 o'clock next morning, n=4 to 7; for Motor activities, relative proportion to the control group (control = 100): control group level taken as 100; for Inhibition of deterioration of the motor activity (in words): ingestion with feedstuff containing 0.4%. From the text:
(§1) Three groups were set as follows. One is a group, to which feedstuff (CE-2, a product of CLEA Japan, Inc.) containing 0.4% of reduced coenzyme Q10 produced in Production Example 1 (containing about 1% by weight of oxidized coenzyme Q10) was given. Another group is a group, to which feedstuff (CE-2, a product of CLEA Japan, Inc.) containing 0.4% of commercially-available oxidized coenzyme Q10 (100% oxidized coenzyme Q10, a product of Kaneka Corporation) was given. The rest is a control group, to which only basic feedstuff (CE-2, a product of CLEA Japan, Inc.) was given. Each group consisted of 8 to 10 senescence-accelerated model mice (SAMP8, 3-week old, male). Each group was allowed free access to the feedstuff. During the test period, measurements of motor activities and recording of the number of dead mice were periodically performed. The dose of reduced and oxidized coenzyme Q10 as estimated from the feed consumption and animal body weight corresponded to about 300 to 500 mg/kg/day.
(§2) Results are illustrated in Tables 1 and 2. Table 1 illustrates the survival rates in the control group, the reduced coenzyme Q10-ingested group, and the oxidized coenzyme Q10-ingested group at the 13th month after the start of the test. Each data consists of n=8 to 10. The survival rate was assayed by the Kaplan-Meier method. The symbol “*” expresses that there is a significant difference relative to the control group at the degree of risk of 5%. Table 2 illustrates averages of motor activities (measuring apparatus: SUPERMEX, a product of Muromachi machinery) over a period from 16 o'clock to 9 o'clock in the morning of next day, and the relative proportions to the control group, estimated by assuming the level of the control group as 100. The data illustrated in Table 2 are values for each of the control group, the reduced coenzyme Q10-ingested group, and the oxidized coenzyme Q10-ingested group at the 11th month after the start of the test. Each data consist of n=4 to 7, and significant difference was tested by t-test.

Data set [2] has the same test system. The experiment in a line: Life extending effect for a senescence-accelerated model mouse (survival rate). The format is in vivo. The settings on record: for Survival Rate (%): SAMP8 male mice, feedstuff containing 0.4% (about 300 to 500 mg/kg/day), 13th month after start of test, Kaplan-Meier, n=8 to 10; for Extension of a life span (in words): SAMP8 mice, ingestion with feedstuff containing 0.4%.
Description: In order to evaluate these life extension effects, a special senescence-accelerated model mouse (for example, SAMP8), which has a shorter lifetime than a common mouse, may be used as a model for evaluations in vivo, for example. […] This mouse is very useful model for evaluating effects over a life span. The aging states shown in this mouse extremely resembles the aging states of humans, and is also useful to evaluate the health condition of humans in a senectitude.
as §1, §2

The next data set concerns mice. To be noted: cited from earlier work.
Data set [3] deals with rats. To be noted: rats bred with unsaturated fatty acid-enriched feed; cited from earlier work.
Data set [4] relates to rats. To be noted: every day over 52 weeks at 1,200 mg/kg/day; cited from earlier work.

`COc1c(O)c(C)c(C/C=C(\C)CC/C=C(\C)CC/C=C(\C)CC/C=C(\C)CC/C=C(\C)CC/C=C(\C)CC/C=C(\C)CC/C=C(\C)CC/C=C(\C)CCC=C(C)C)c(O)c1OC` [Reduced coenzyme Q10, reduced coenzyme Q10]: in data set [1], the “Motor activities (Count)” value turned out to be 17520 Count; the “Motor activities, relative proportion to the control group (control = 100)” value is listed as “(163)”; the “Inhibition of deterioration of the motor activity (in words)” value was “inhibition of deterioration of the motor activity”. In addition, in data set [2], the “Survival Rate (%)” value is on record as 75% and the “Extension of a life span (in words)” value was “remarkable extension of a life span”.

ubiquinone: in the data set on mice, the “Effect on life span of mice” value is on record as “did not affect the life span of mice”. Besides, the “Effect on life span of rats” value with rats [3] is “extended the life span of the rat”.

With `COC1=C(OC)C(=O)C(C/C=C(\C)CC/C=C(\C)CC/C=C(\C)CC/C=C(\C)CC/C=C(\C)CC/C=C(\C)CC/C=C(\C)CC/C=C(\C)CC/C=C(\C)CCC=C(C)C)=C(C)C1=O` [coenzyme Q10], the “Toxic effect in chronic toxicity test” value in the data set on rats [4] is recorded as “no toxic effect was observed”.

`COC1=C(OC)C(=O)C(C/C=C(\C)CC/C=C(\C)CC/C=C(\C)CC/C=C(\C)CC/C=C(\C)CC/C=C(\C)CC/C=C(\C)CC/C=C(\C)CC/C=C(\C)CCC=C(C)C)=C(C)C1=O` [Oxidized coenzyme Q10, oxidized coenzyme Q10]: in data set [1], the “Motor activities (Count)” value stood at 12754 Count; the “Motor activities, relative proportion to the control group (control = 100)” value was “(119)”; the “Inhibition of deterioration of the motor activity (in words)” value was “slightly improved”. Also, in data set [2], the “Survival Rate (%)” value came out at 40% and the “Extension of a life span (in words)” value is “slightly improved”.

These data come from US20090148426A1, “COMPOSITION FOR LIFE EXTENSION AND METHOD OF EXTENDING THE LIFE” (priority 2005, published 2009).
